This is an account of results in article PMC9551036, “A selective and orally bioavailable VHL-recruiting PROTAC achieves SMARCA2 degradation in vivo” (Nature Communications, 2022).

Assay [1] addresses T1, (Homo sapiens, UniProt P51532).
T1 construct: P51532, residues 1448–1569 with additional N-terminal SM residues; GST (TEV site) (N); His6 (TEV site) (N, cleaved yes); made in house; host or cells: SMARCA4^BD: Escherichia coli BL21(DE3)
Nature of the assay: TR-FRET ternary complex affinity and cooperativity, SMARCA4. The format is binding.

The next assay relates to NCI-H1568 cells. Briefly: Cell viability assay (CellTiter Glo) in NCI-H1568. Type of assay: cell-based, human. Conditions: for EC50: read-out: EC50 cell proliferation (CellTiter Glo); for IC50: NCI-H1568, (18h), CellTiter Glo, individual replicates, read-out: NCI-H1568 (18h) CTG. As for the experimental part:
500–2000 cells were seeded in white, clear bottom 96-well plates (Corning or Perkin Elmer) in 180–200 µl medium per well. The next day, compounds were added using a digital dispenser and a T0 sample was measured for reference. […], and viability (luminescence) was measured using CellTiter Glo or CellTiter Glo 2.0 (Promega) according to manufacturer’s instructions after equilibrating cells and reagents at room temperature and 10–20 min incubation time while shaking.

The target in assay [2] is T2, SMARCA2 (Homo sapiens, UniProt P51531). Nature of the assay: SMARCA2 capillary electrophoresis protein assay in RKO cells. The format is cell-based. Set-up: endogenous in cells; host or cells: RKO, NCI-H1568, A549, HCT116, LU99, HCC-364, HCT-15, HCC4006, SK-N-AS. Conditions: for DC50 / SMARCA2 Dmax / Dmax: mean ± SD; for Dmax: RKO. The procedure:
130,000–200,000 cells were seeded in 24-well plates and incubated until settled down or overnight. Compounds were dissolved in DMSO and added to cells in indicated concentrations using a digital dispenser following an optional media change. […] For SMARCA2/4 half-life determination, 150,000 or 200,000 cells were seeded in 24-well plates. […] For SMARCA2/4 re-synthesis measurements, 200,000 cells were seeded in 24-well plates. […] Medium was removed, cells were washed with PBS and lysed with 80 µl Lysis Buffer (MSD Tris Lysis Buffer (#R60TX-2) + Halt Inhibitor Cocktail (100x) + Benzonase 0.5 µL/ml). Samples were frozen at −80 °C and thawed at room temperature before use. Samples were transferred to a V-bottom plate and insoluble debris was pelleted by centrifugation for 5 min at maximum speed. The supernatant was transferred to a fresh plate. Master Mix and Ladder were prepared according to manufacturer’s instructions for 12–230 kDa Wes Separation Module, 8 × 25 capillary cartridges, Protein Simple #SM-W004 with Anti-Rabbit Detection Module for Wes, Peggy Sue or Sally Sue, Protein Simple #DM-001. 4.8 µl lysate were mixed with 1.2 µl Master Mix to achieve a protein concentration of ~0.5 µg/µl. […] Wes plates were prepared and run according to manufacturer’s instructions. Proteins were quantified with accompanying Compass Software. SMARCA2/4 protein levels were normalised to GAPDH. […] Where applicable, curves were fitted using a 4-parametric logistic model.

Assay [3] addresses T2, SMARCA2. Briefly: Imaging-based SMARCA2 protein assay in RKO cells. As to conditions: individual replicates. Set-up: endogenous in cells; host or cells: RKO, NCI-H1568, A549, HCT116, LU99, HCC-364, HCT-15, HCC4006, SK-N-AS. Type of assay: cell-based. The procedure:
1250 cells per well in 60 µl medium were plated in flat bottom, poly-lysin coated 384-well plates (CellCarrier Ultra, Perkin Elmer). The next day, test compounds (10 µl of serial dilutions) and DMSO controls were diluted in DMEM medium such that the final DMSO content was <1% or were added using an ultrasound dispensing system. 4 wells were reserved for a background measurement. […] After aspirating the fixing solution, the cells were washed once with 25 µl PBS. 25 µl of blocking buffer (10% goat serum in PBS) was added and cells were incubated for 30 min, then washed once with PBS. […] Cells were again washed once with PBS. […] The cell layer was then washed once with 25 µl PBS, the wells were filled with 25 µl PBS and the plates were sealed with an adhesive sheet. They were then imaged on the Opera Phoenix (mean intensity in the nucleus). […] EC50 values were computed using a 4-parametric logistic model.

Setting [4] is: TR-FRET competition for SMARCA4BD, without VCB, mean ± SD, read-out: TR-FRET SMARCA4BD EC50.
[5] abbreviates: binary, PROTAC alone, individual replicates, read-out: SMARCA4 BD EC50.
[6] abbreviates: 4h, read-out: RKO (4h) SMARCA2 DC50.
Setting [7] is: 18h, read-out: RKO (18h) SMARCA2 DC50.

“And” between values parts separate entries of the source, which are not always exact repeats. Identical values can stand only once. Like-named read-outs stand apart in the source and are kept apart here.

T1 sequence (P51532 1448-1569): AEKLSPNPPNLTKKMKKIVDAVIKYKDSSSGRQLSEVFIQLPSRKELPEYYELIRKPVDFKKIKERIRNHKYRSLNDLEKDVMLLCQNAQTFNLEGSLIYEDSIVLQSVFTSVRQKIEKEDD
T2 sequence (P51531 whole entry): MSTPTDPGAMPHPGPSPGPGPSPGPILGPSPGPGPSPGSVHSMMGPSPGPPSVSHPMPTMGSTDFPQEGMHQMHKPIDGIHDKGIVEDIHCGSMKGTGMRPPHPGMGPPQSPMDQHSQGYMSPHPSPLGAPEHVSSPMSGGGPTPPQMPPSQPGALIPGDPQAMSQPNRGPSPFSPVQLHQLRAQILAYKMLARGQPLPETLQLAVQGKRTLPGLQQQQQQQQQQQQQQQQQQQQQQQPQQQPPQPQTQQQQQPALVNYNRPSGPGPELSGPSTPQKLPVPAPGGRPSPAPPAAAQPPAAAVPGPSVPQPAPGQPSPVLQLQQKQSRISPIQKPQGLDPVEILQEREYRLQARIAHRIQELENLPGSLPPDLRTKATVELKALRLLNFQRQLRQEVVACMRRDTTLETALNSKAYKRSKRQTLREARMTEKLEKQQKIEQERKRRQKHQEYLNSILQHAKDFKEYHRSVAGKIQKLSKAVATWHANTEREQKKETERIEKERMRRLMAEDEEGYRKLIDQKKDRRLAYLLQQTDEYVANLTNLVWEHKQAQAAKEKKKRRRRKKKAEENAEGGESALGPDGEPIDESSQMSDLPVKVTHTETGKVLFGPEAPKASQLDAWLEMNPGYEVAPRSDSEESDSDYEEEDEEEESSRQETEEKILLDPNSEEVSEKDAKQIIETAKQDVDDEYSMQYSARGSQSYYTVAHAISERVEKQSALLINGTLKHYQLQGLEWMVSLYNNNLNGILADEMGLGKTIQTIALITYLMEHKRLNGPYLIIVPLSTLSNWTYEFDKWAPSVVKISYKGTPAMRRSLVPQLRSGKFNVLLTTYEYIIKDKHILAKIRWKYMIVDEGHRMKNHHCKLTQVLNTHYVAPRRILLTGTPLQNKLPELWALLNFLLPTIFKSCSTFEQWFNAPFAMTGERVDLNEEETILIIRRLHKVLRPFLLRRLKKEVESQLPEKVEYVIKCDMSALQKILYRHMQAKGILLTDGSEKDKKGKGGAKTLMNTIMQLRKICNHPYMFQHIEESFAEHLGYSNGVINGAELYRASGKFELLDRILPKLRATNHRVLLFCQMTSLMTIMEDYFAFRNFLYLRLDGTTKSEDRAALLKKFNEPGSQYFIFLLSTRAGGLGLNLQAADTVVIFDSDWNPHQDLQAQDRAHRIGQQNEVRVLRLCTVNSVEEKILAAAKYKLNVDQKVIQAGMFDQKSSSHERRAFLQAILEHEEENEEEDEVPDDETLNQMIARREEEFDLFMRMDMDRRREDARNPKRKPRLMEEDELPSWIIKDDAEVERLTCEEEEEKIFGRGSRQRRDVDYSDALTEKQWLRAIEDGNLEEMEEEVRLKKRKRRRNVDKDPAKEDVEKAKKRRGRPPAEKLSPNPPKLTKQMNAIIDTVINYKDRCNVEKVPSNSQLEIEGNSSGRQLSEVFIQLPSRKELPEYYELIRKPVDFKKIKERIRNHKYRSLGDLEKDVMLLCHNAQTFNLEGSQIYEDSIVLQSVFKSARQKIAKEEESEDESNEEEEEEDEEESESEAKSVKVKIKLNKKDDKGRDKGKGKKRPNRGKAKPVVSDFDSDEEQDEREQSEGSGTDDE

Consider `Cc1ncsc1-c1ccc([C@H](COC(C)(C)CN2CCC(c3ccc4c(c3)n(C3CCCC3)c3nc(=O)c5c(Br)cccc5n43)CC2)NC(=O)[C@@H]2C[C@@H](O)CN2C(=O)[C@@H](NC(=O)C2(F)CC2)C(C)(C)C)cc1` [compound 28], for which the EC50 is 240 ± 55 nM in assay [1] (setting [4]); 300 nM and 283 nM and 195 nM and 201 nM in assay [1] (setting [5]); 16 ± 5 nM with NCI-H1568 cells (NCI-H1568 ([…]), mean ± SD). Further, the IC50 in the assay on NCI-H1568 cells was 16.7 nM and 21.6 nM and 18.3 nM and 17.1 nM and 20.5 nM and 6.45 nM. The DC50 is 17 ± 8 nM on SMARCA2 [2] (RKO (4 h)); 5 ± 2 nM on SMARCA2 [2] (RKO (18 h)); 14.7 nM and 15 nM and 30.1 nM and 11.8 nM at SMARCA2 [3] (setting [6]); 3.23 nM and 5.17 nM and 7.73 nM and 5.43 nM at SMARCA2 [3] (setting [7]). Further, the “SMARCA2 Dmax” value on SMARCA2 [2] (RKO (4 h)) stood at 69 ± 4%; at SMARCA2 [2] (RKO (18 h)), 76 ± 11%.

With `Cc1ncsc1-c1ccc([C@H](COC(C)CN2CCC(c3ccc4c(c3)n(C3CCCC3)c3nc(=O)c5c(Br)cccc5n43)CC2)NC(=O)[C@@H]2C[C@@H](O)CN2C(=O)[C@@H](NC(=O)C2(N(C)C)CC2)C(C)(C)C)cc1` (some centres unmarked) [compound 10], the EC50 in assay [1] (setting [4]) was 191 ± 85 nM; in assay [1] (setting [5]), 108 nM and 250 nM and 259 nM; in the assay with NCI-H1568 cells (Homo sapiens, NCI-H1568, […]), 16 ± 7 nM. Also, in the assay with NCI-H1568 cells, the IC50 is 21.5 nM and 20 nM and 8.75 nM. Besides, the DC50 at SMARCA2 [2] (RKO (4 h)) is 6 ± 3 nM; at SMARCA2 [2] (RKO (18 h)) it was 3 ± 3 nM; at SMARCA2 [3] (setting [6]), 8.19 nM and 6.54 nM and 2.93 nM and 10.6 nM; on SMARCA2 [3] (setting [7]), 1.26 nM and 3.06 nM and 6.17 nM. The Dmax on SMARCA2 [2] (RKO (4 h)) turned out to be 70 ± 2%; on SMARCA2 [2] (RKO (18 h)), 82 ± 5%.

As for `Cc1ncsc1-c1ccc([C@H](COC(C)CN2CCC(c3ccc4c(c3)n(C3CCCC3)c3nc(=O)c5c(Br)cccc5n43)CC2)NC(=O)[C@@H]2C[C@@H](O)CN2C(=O)[C@@H](NC(=O)C2(F)CC2)C(C)(C)C)cc1` (some centres unmarked) [compound 9], the EC50 in assay [1] (setting [4]) is 265 ± 34 nM; in assay [1] (setting [5]), 228 nM and 295 nM and 276 nM; with NCI-H1568 cells (Homo sapiens, NCI-H1568, […]), 45 ± 51 nM. The IC50 in the assay on NCI-H1568 cells is 48.2 nM and 116 nM and 16.6 nM. Further, the DC50 at SMARCA2 [2] (RKO (4 h)) was 12 ± 4 nM; on SMARCA2 [2] (RKO (18 h)), 5 ± 1 nM; on SMARCA2 [3] (setting [6]), 11.4 nM and 10.4 nM and 9.77 nM and 18.8 nM; at SMARCA2 [3] (setting [7]), 4.73 nM and 4.97 nM and 4.9 nM and 3.53 nM. Also, the Dmax on SMARCA2 [2] (RKO (4 h)) came out at 72 ± 7%; at SMARCA2 [2] (RKO (18 h)) it was 76 ± 10%. Also, the “selectivity for SMARCA2 over SMARCA4 degradation” value at SMARCA2 [2] (Supplementary Data 2) was “remarkable selectivity”.

Consider `Cc1ncsc1-c1ccc([C@H](CCCCN2CCC(c3ccc4c(c3)n(C3CCCC3)c3nc(=O)c5c(Br)cccc5n43)CC2)NC(=O)[C@@H]2C[C@@H](O)CN2C(=O)[C@@H](NC(=O)C2(F)CC2)C(C)(C)C)cc1` [compound 25], for which the EC50 in assay [1] (setting [4]) is 182 ± 57 nM; in assay [1] (setting [5]), 134 nM and 202 nM and 155 nM and 262 nM; in the assay with NCI-H1568 cells (NCI-H1568 ([…]), mean ± SD) it was 7 ± 4 nM. Moreover, the IC50 in the assay on NCI-H1568 cells is 11.9 nM and 5.25 nM and 6.51 nM. Further, the DC50 is 3 ± 1 nM on SMARCA2 [2] (RKO (4 h)); 3 ± 1 nM on SMARCA2 [2] (RKO (18 h)); 4.26 nM and 1.82 nM and 3.89 nM and 3.46 nM on SMARCA2 [3] (setting [6]); 2 nM and 2.63 nM and 3.33 nM on SMARCA2 [3] (setting [7]). Also, the “SMARCA2 Dmax” value on SMARCA2 [2] (RKO (4 h)) is reported as 66 ± 5%; on SMARCA2 [2] (RKO (18 h)), 80 ± 6%.
